A value given as a limit tells only on which side of the number the result lay.

Assay [1] concerns Botrytis cinerea. The assay is described as follows: Test on the preventive effect against cucumber gray mold (mycelium inoculation). The conditions noted are these: 48 h, test solution A 500 ppm, 5 ml per pot, cucumber cotyledon, agar block inoculation, 2 days at 20° C. It is filed as in vivo. The procedure, abridged: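 Cucumber cotyledons (Sagami Hanjiro) were sprayed with 5 ml per pot of a 500 ppm dilution of a 20 wt % emulsifiable concentrate. Next day, mycelial agar plugs of Botrytis cinerea were placed on cotyledons, held humid at 20° C for 2 days. Lesion proportion gave the control value; duplicate.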

Assay [2] deals with Sclerotinia sclerotiorum. The assay is described as follows: Test on the preventive effect against cucumber stem rot. It is filed as in vivo. The conditions noted are these: 48 h, test solution A 500 ppm, 5 ml per pot, agar block inoculation, 2 days at 20° C. The procedure, abridged: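 Cucumber (Sagami Hanjiro) at cotyledon stage sprayed with 5 ml/pot of 500 ppm compound from a 20 wt % emulsifiable concentrate, air-dried, then inoculated on seed leaves with agar blocks of S. sclerotiorum grown on PDA. Kept humid at 20° C for 2 days; lesion proportion scored and control value calculated, in duplicate.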

In assay [3] the test system is Blumeria graminis f. sp. tritici. The assay is described as follows: Test on the preventive effect against wheat powdery mildew. Format: in vivo. The conditions noted are these: 168 h, test solution A 500 ppm, 5 ml per pot, wheat 1.3-leaf stage, 7 days after inoculation. The procedure, abridged: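 Compounds formulated as 20 wt % emulsifiable concentrates and diluted with water to 500 ppm; 5 ml per pot applied to wheat (Norin 61) at the 1.3-leaf stage. Conidia inoculated one day later in a 20° C greenhouse; lesion proportion scored after 7 days as control value, in duplicate.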

The test system of assay [4] is Southern root-knot nematode (Meloidogyne incoqnita). The assay is described as follows: Insecticidal test against Southern root-knot nematode (eggs, 96 well plate). The conditions noted are these: 96 h, test solution B 100 ppm, 10 μl per well, 25° C. dark, 4 days after treatment, read-out: efficacy (unhatched eggs + inactive larvae relative to non-treated). Format: in vivo. On the procedure:
(§1) Compounds of the present invention were dissolved in dimethyl sulfoxide to prepare 1 wt % solutions. Then, distilled water was added to dilute the solutions to the prescribed concentration (100 ppm), and the obtained solutions were used in the following the Test Examples 9 to 12. 60 μl of a potato dextrose 1% agar medium was added to each well of a 96 well plate, and 30 μl of sterilized water containing eggs of Southern root-knot nematode (Meloidogyne incoqnita) (10 eggs/3 μl) was added to each well. Further, 10 μl per well of test solution B of the compounds of the present invention was added, and the plate was left at rest at 25° C. under dark conditions.

Assay [5] relates to Erysiphe polygoni (synonym: Erysiphe betae). The assay is described as follows: Test on the preventive effect against cucumber powdery mildew. It is filed as in vivo. The note with it: 216 h, test solution A 500 ppm, 5 ml per pot sprayed, cucumber cotyledon stage, 9 days after inoculation. The procedure, abridged: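 Cucumber (Sagami Hanjiro) at cotyledon stage sprayed with 500 ppm compound (diluted from 20 wt% emulsifiable concentrate), air-dried, then inoculated with Erysiphe polygoni conidia. Kept 9 days at 20 °C in greenhouse; lesion area ratio scored in duplicate, control value = [1−(treated/untreated lesion ratio)]×100.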

In assay [6] the test system is Asperaillus niger. Nature of the assay: Test on the antifungal activity against Asperaillus niger. Format: cell-based. The note with it: 48 h; test solution B 100 ppm, 10 μl per well, 96 well plate, 25° C. dark, 2 days after treatment; read-out: efficacy (flora area ratio relative to non-treated well). On the procedure: as §1, with “spores” for “eggs”, “Asperaillus niger” for “Southern root-knot nematode (Meloidogyne incoqnita)”, “spores/3” for “eggs/3”, “conditions. 2 days after treatment, the flora area ratio (%) was determined to calculate the efficacy (%) relative to the non-treated well in accordance with the following formula. Efficacy (%)=[1−(flora area ratio in treated plot/flora area ratio in non-treated well)]×100” for “conditions.”

In the case of `O=C(NCC(F)(F)c1ncc(C#CC2CC2)cc1Cl)c1ccccc1C(F)(F)F` [1-005], the pest or weed control at 500 µg/mL in assay [1], in assay [2], in assay [3] and in assay [5] was at least 70% each time. The pest or weed control at 100 µg/mL in assay [4] was at least 50%. Also, the inhibition of growth at 100 µg/mL in assay [6] is at least 50%.

As to `CC(CNC(=O)c1ccccc1C(F)(F)F)c1ncc(C#CC2CC2)cc1Cl` (stereo not drawn) [1-007, N-[2-[3-chloro-5-(cyclopropylethynyl)pyridin-2-yl]propyl]-2-(trifluoromethyl)benzamide], the pest or weed control at 500 µg/mL in assay [1], in assay [2], in assay [3] and in assay [5] was at least 70% each time. Also, in assay [4], the pest or weed control at 100 µg/mL is at least 50%. Moreover, the inhibition of growth at 100 µg/mL in assay [6] was at least 50%.

On to `CC(C)(CNC(=O)c1ccccc1C(F)(F)F)c1ncc(C#CC2CC2)cc1Cl` [1-008], for which the pest or weed control at 500 µg/mL in assay [1], in assay [2], in assay [3] and in assay [5] was at least 70% in each case. Further, the pest or weed control at 100 µg/mL in assay [4] is at least 50%. In assay [6], the inhibition of growth at 100 µg/mL was at least 50%.

As for `C=C(CNC(=O)c1ccccc1C(F)(F)F)c1ncc(C#CC)cc1Cl` [1-012, N-[2-[3-chloro-5-(1-propynyl)pyridin-2-yl]-2-propenyl]-2-(trifluoromethyl)benzamide], the pest or weed control at 500 µg/mL in assay [1], in assay [2], in assay [3] and in assay [5] was at least 70% in each case. Moreover, the pest or weed control at 100 µg/mL in assay [4] was at least 50%. Moreover, in assay [6], the inhibition of growth at 100 µg/mL was at least 50%.

`CSC(CNC(=O)c1ccccc1C(F)(F)F)c1ncc(C#CC2CC2)cc1Cl` (stereo not drawn) [1-021]: the pest or weed control at 500 µg/mL in assay [1], in assay [2], in assay [3] and in assay [5] was at least 70% in each case. Also, the pest or weed control at 100 µg/mL in assay [4] is at least 50%. For the same molecule, in assay [6], the inhibition of growth at 100 µg/mL was at least 50%.

Consider `COC(c1ncc(C#CC2CC2)cc1Cl)C(C)NC(=O)c1ccccc1C(F)(F)F` (stereo not drawn) [1-024], for which the pest or weed control at 500 µg/mL in assay [1], in assay [2], in assay [3] and in assay [5] was at least 70% throughout. Further, in assay [4], the pest or weed control at 100 µg/mL is at least 50%. In addition, the inhibition of growth at 100 µg/mL in assay [6] is at least 50%.

Take `COC(c1ncc(C#CC(C)(C)C)cc1Cl)C(C)NC(=O)c1ccccc1C(F)(F)F` (stereo not drawn) [1-025]: the pest or weed control at 500 µg/mL in assay [1], in assay [2], in assay [3] and in assay [5] was at least 70% in each case. Besides, the pest or weed control at 100 µg/mL in assay [4] was at least 50%. In assay [6], the inhibition of growth at 100 µg/mL was at least 50%.

`O=C(NCCc1ncc(C#CC2CC2)cc1Cl)c1cccnc1C(F)F` [3-001, N-[2-[3-chloro-5-(cyclopropylethynyl)pyridin-2-yl]ethyl]-2-(difluoromethyl)nicotinamide]: the pest or weed control at 500 µg/mL in assay [1], in assay [2], in assay [3] and in assay [5] was at least 70% each time. Besides, the pest or weed control at 100 µg/mL in assay [4] is at least 50%. Also, in assay [6], the inhibition of growth at 100 µg/mL is at least 50%.

Turning to `CC(C)(C)C#Cc1cnc(CCNC(=O)c2cccnc2C(F)F)c(Cl)c1` [3-002], the pest or weed control at 500 µg/mL in assay [1], in assay [2], in assay [3] and in assay [5] was at least 70% in each case. Besides, the pest or weed control at 100 µg/mL in assay [4] is at least 50%. Besides, the inhibition of growth at 100 µg/mL in assay [6] was at least 50%.

Take `O=C(NCC(F)(F)c1ncc(C#CC2CC2)cc1Cl)c1cccnc1C(F)F` [3-003, N-[2-[3-chloro-5-(cyclopropylethynyl)pyridin-2-yl]-2,2-difluoroethyl]-2-(difluoromethyl)nicotinamide]: the pest or weed control at 500 µg/mL in assay [1], in assay [2], in assay [3] and in assay [5] was at least 70% in each case. Also, in assay [4], the pest or weed control at 100 µg/mL is at least 50%. The inhibition of growth at 100 µg/mL in assay [6] was at least 50%.

In the case of `CC(CNC(=O)c1cccnc1Cl)c1ncc(C#CC2CC2)cc1Cl` (stereo not drawn) [3-005], the pest or weed control at 500 µg/mL in assay [1], in assay [2], in assay [3] and in assay [5] was at least 70% in each case. Further, the pest or weed control at 100 µg/mL in assay [4] is at least 50%. Also, in assay [6], the inhibition of growth at 100 µg/mL is at least 50%.

As for `CC(CNC(=O)c1cccnc1C(F)F)c1ncc(C#CC2CC2)cc1Cl` (stereo not drawn) [3-006], the pest or weed control at 500 µg/mL in assay [1], in assay [2], in assay [3] and in assay [5] was at least 70% in each case. Moreover, the pest or weed control at 100 µg/mL in assay [4] was at least 50%. In addition, the inhibition of growth at 100 µg/mL in assay [6] was at least 50%.

Turning to `CC(C)(CNC(=O)c1cccnc1C(F)F)c1ncc(C#CC2CC2)cc1Cl` [3-007, N-[2-[3-chloro-5-(cyclopropylethynyl)pyridin-2-yl]-2-methylpropyl]-2-(difluoromethyl)nicotinamide], the pest or weed control at 500 µg/mL in assay [1], in assay [2], in assay [3] and in assay [5] was at least 70% throughout. Further, the pest or weed control at 100 µg/mL in assay [4] was at least 50%. For the same molecule, in assay [6], the inhibition of growth at 100 µg/mL was at least 50%.

For the molecule `O=C(NCC(c1ncc(C#CC2CC2)cc1Cl)C1CC1)c1cccnc1C(F)F` (stereo not drawn) [3-008], the pest or weed control at 500 µg/mL in assay [1], in assay [2], in assay [3] and in assay [5] was at least 70% each time. Further, the pest or weed control at 100 µg/mL in assay [4] was at least 50%. Also, the inhibition of growth at 100 µg/mL in assay [6] is at least 50%.

With `CSC(CNC(=O)c1cccnc1C(F)F)c1ncc(C#CC2CC2)cc1Cl` (stereo not drawn) [3-020], the pest or weed control at 500 µg/mL in assay [1], in assay [2], in assay [3] and in assay [5] was at least 70% each time. In addition, the pest or weed control at 100 µg/mL in assay [4] is at least 50%. Besides, the inhibition of growth at 100 µg/mL in assay [6] is at least 50%.

As for `COC(c1ncc(C#CC2CC2)cc1Cl)C(C)NC(=O)c1cccnc1C(F)F` (stereo not drawn) [3-021], the pest or weed control at 500 µg/mL in assay [1], in assay [2], in assay [3] and in assay [5] was at least 70% throughout. Further, the pest or weed control at 100 µg/mL in assay [4] is at least 50%. For the same molecule, in assay [6], the inhibition of growth at 100 µg/mL was at least 50%.

On to `Cn1cc(C(=O)NCCc2ncc(C#CC3CC3)cc2Cl)c(C(F)F)n1` [8-001], for which the pest or weed control at 500 µg/mL in assay [1], in assay [2], in assay [3] and in assay [5] was at least 70% each time. Moreover, the pest or weed control at 100 µg/mL in assay [4] was at least 50%. In addition, in assay [6], the inhibition of growth at 100 µg/mL was at least 50%.

The values above are taken from patent publication US10029986B2, “Alkynyl pyridine-substituted amide compound and pesticide” (NISSAN CHEMICAL INDUSTRIES, LTD., priority 2014, dated 2018).
